Measured values reported in patent publication US9023789B2, “Amylin analogs and pharmaceutical compositions thereof” (Novo Nordisk A/S, priority 2012, dated 2015).
Numbered stars: 1 amine (or outer) side, 2 acyl side, 3 side chain; on linkers, the order of the positions; unused ones are H or OH. Bridge positions count the residues as written; N and C are the ends. Side chains are listed from the residue outwards. Peptide text beside a SMILES is read from it. * marks the point of attachment. C20 diacid = O=C(O)CCCCCCCCCCCCCCCCCCC(=O)*; γGlu = O=C(O)[C@H](CCC(=O)[*:2])N[*:1]

Columns and labels:
[1] = ASSAY (III) ThT fibrillation assay for physical stability; assay type: physicochemical
From the text: Assay (III)—ThT Fibrillation Assays for the Assessment of Physical Stability of Protein Formulations Low physical stability of a polypeptide may lead to amyloid fibril formation, which is observed as well-ordered, thread-like macromolecular structures in the sample eventually resulting in gel formation. This has traditionally been measured by visual inspection of the sample. However, that kind of measurement is very subjective and depending on the observer. Therefore, the application of a small molecule indicator probe is much more advantageous. Thioflavin T (ThT) is such a probe and has a distinct fluorescence signature when binding to fibrils [Naiki et al. (1989) Anal. […] LeVine (1999) Methods. Enzymol. […], 274-284]. The time course for fibril formation can be described by a sigmoidal curve with the following expression [Nielsen et al. (2001) Biochemistry 40, 6036-6046]; […] Here, F is the ThT fluorescence at the time t. The constant t0 is the time needed to reach 50% of maximum fluorescence. […] Few of those intermediates nucleate to form a template onto which further intermediates may assembly and the fibrillation proceeds. The lag-time corresponds to the interval in which the critical mass of nucleus is built up and the apparent rate constant is the rate with which the fibril itself is formed. Sample Preparation Samples were prepared freshly before each assay. Each sample composition is described in each example. The pH of the sample was adjusted to the desired value using appropriate amounts of concentrated NaOH and HClO4 or HCl. Thioflavin T was added to the samples from a stock solution in H2O to a final concentration of 1 μM. Sample aliquots of 200 μl were placed in a 96 well microtiter plate (Packard OptiPlate™96, white polystyrene). Usually, four or eight replica of each sample (corresponding to one test condition) were placed in one column of wells. The plate was sealed with Scotch Pad (Qiagen). Incubation and Fluorescence Measurement Incubation at given temperature, shaking and measurement of the ThT fluorescence emission were done in a Fluoroskan Ascent FL fluorescence platereader or Varioskan platereader (Thermo Labsystems). The temperature was adjusted to 37° C. The orbital shaking was adjusted to 960 rpm with an amplitude of 1 mm in all the presented data. Fluorescence measurement was done using excitation through a 444 nm filter and measurement of emission through a 485 nm filter. Each run was initiated by incubating the plate at the assay temperature for 10 min. The plate was measured every 20 minutes for a desired period of time. Between each measurement, the plate was shaken and heated as described. Data Handling The measurement points were saved in Microsoft Excel format for further processing and curve drawing and fitting was performed using GraphPad Prism. The background emission from ThT in the absence of fibrils was negligible. The data points are typically a mean of four or eight samples and shown with standard deviation error bars. Only data obtained in the same experiment (i.e. samples on the same plate) are presented in the same graph ensuring a relative measure of fibrillation between experiments. The data set may be fitted to Eq. […] However, since full sigmodial curves in this case are not always achieved during the measurement time, the degree of fibrillation is expressed as ThT fluorescence tabulated as the mean of the samples and shown with the standard deviation at various time points. Measurement of Initial and Final Concentrations The polypeptide concentration in each of the tested formulations were measured both before application in the ThT fibrillation assay (“Initial”) and after completion of the ThT fibrillation (“After ThT assay”). Concentrations were determined by reverse HPLC methods using a pramlintide standard as a reference. Before measurement after completion 150 μl was collected from each of the replica and transferred to an Eppendorf tube. These were centrifuged at 30000 G for 40 mins. […]

[2] = biological target: T1, human calcitonin (a) receptor in BHK570 cells (Homo sapiens, UniProt P30988); test: ASSAY (II)a functional assay, human calcitonin receptor (CRE luciferase); assay type: cell-based; details: read-out: hCTR funct. EC50
T1 construct: expressed in transfected cells
T1 sequence (P30988 25-474): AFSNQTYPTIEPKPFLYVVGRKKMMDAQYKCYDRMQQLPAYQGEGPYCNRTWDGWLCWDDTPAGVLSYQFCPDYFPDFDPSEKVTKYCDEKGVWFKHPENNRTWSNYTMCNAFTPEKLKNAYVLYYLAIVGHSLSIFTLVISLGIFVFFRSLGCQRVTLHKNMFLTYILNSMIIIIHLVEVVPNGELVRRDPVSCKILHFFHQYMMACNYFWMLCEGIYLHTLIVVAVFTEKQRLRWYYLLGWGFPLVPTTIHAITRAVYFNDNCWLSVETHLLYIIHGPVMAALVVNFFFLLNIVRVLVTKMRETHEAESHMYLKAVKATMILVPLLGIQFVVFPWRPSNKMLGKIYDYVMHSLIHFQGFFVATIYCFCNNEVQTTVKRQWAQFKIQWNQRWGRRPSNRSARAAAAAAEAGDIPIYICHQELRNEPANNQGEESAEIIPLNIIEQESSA
From the text: 1. Luciferase Assay Outline
Activation of calcitonin and amylin (coexpression of calcitonin receptor and receptor activity modifying proteins (RAMP)) receptors lead to increased intracellular concentrations of cAMP. Consequently, transcription is activated by promoters containing multiple copies of the cAMP response element (CRE). It is thus possible to measure amylin activity by the use of a CRE luciferase reporter gene introduced into BHK cells also expressing calcitonin or amylin receptors.
2. Construction of Calcitonin (a)- and Amylin 3(a)-Receptor/CRE-Luc Cell Line.
The cell line was further transfected with RAMP-3, using standard methods. This turns the calcitonin receptor into an amylin 3(a) receptor. Methotrexate, Neomycin, and Hygromycin are selection markers for luciferase, the calcitonin receptor, and RAMP-3, respectively.
To perform activity assays, BHK calcitonin (a) receptor- or amylin 3(a)-receptor/CRE-luc cells were seeded in white 96 well culture plates at a density of about 20.000 cells/well. […] After incubation overnight at 37° C. and 5% CO2, the growth medium was replaced by 50 μl/well assay medium (DMEM (without phenol red), Glutamax™, 10% FBS, and 10 mM Hepes, pH 7.4). Further, 50 μl/well of standard or sample in assay buffer were added. After 3 hours incubation at 37° C. and 5% CO2, the assay medium with standard or sample were removed and replaced by 100 μl/well PBS. Further, 100 μl/well LucLite™ was added. The plates were sealed and incubated at room temperature for 30 minutes. Finally, luminescence was measured on a TopCounter (Packard) in SPC (single photon counting) mode.

[3] = biological target: T2, human amylin 3(a) receptor (human calcitonin receptor + RAMP-3) in BHK570 cells (Homo sapiens, UniProt O60896+P30988); test: ASSAY (II)a functional assay, human amylin receptor (CRE luciferase); assay type: cell-based
T2 construct: expressed in transfected cells
Summary of the method: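 BHK CRE-luc cells, calcitonin (a) receptor ± RAMP-3 (amylin 3(a)); overnight seeding, 37° C/5% CO2. 3 h ligand exposure, DMEM/10% FBS/10 mM Hepes pH 7.4. LucLite 30 min RT; luminescence (SPC).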

[4] = biological target: T3, human calcitonin receptor (Homo sapiens, UniProt P30988); test: ASSAY (VII) binding to the human calcitonin receptor (SPA, 125I-Calcitonin); details: read-out: hCTR bind IC50;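 note: cell membranes (35 ng/µL) combined with SPA beads in 40 µL of pH 7.4 Hepes buffer, 384-well format, signal counted on a TopCounter instrument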
T3 construct: expressed in transfected cells
T3 sequence (P30988 25-474): T1 sequence (P30988 25-474)

[5] = biological target: T4, human amylin receptor (membranes from Amylin 3(a)/CRE-luc cells) (Homo sapiens, UniProt O60896+P30988); test: ASSAY (V) binding to the human amylin receptor (SPA, 125I-rat amylin);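 note: competition binding of cell membranes (35 ng/µL) mixed with SPA beads in 384-well plates at 40 µL total volume, read by scintillation counting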
T4 construct: expressed in transfected cells
T4 sequence (P30988 25-474): T1 sequence (P30988 25-474)
T4 sequence (O60896 24-148 partner): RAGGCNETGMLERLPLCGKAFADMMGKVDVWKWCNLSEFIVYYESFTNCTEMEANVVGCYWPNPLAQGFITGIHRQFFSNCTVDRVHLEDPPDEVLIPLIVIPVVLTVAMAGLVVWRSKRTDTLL

- ThT pH 4.0 lag time (h) [1]: 45 h
- EC50 [2]: 0.47 nM
- Ratio hCT/hAmylin funct. ([3]; hCTR funct. EC50 / hAmylin-R funct. EC50): 2.2
- Ratio hCT/hAmylin funct. ([3]; hCTR funct. EC50 divided by hAmylin-R funct. EC50): 2.2
- Ratio hCT/hAmylin funct. ([3]; hCTR funct. EC50 over hAmylin-R funct. EC50): 2.2
- EC50 ([3]; human amylin receptor functional potency, assay (II), read-out: hAmylin-R funct. EC50): 0.213 nM
- Ratio hCT/hAmylin funct. ([3]; human functional selectivity: hCTR funct. EC50 / hAmylin-R funct. EC50): 2.2
- IC50 [4]: 0.305 nM
- IC50 ([5]; Table 4, read-out: hAmylin-R bind IC50): 0.264 nM
- Ratio hCT/hAmylin binding ([5]; Table 5, selectivity, hCTR bind IC50 / hAmylin-R bind IC50): 1.2
- Ratio hCT/hAmylin binding ([5]; Table 7, human binding selectivity, included for comparison): 1.2
SMILES: CC[C@H](C)[C@H](NC(=O)[C@H](C)NC(=O)CNC(=O)[C@H](Cc1ccccc1)NC(=O)[C@H](CC(N)=O)NC(=O)[C@@H]1CCCN1C(=O)[C@H](CO)NC(=O)[C@H](CO)NC(=O)[C@H](Cc1c[nH]cn1)NC(=O)[C@H](CCCNC(=N)N)NC(=O)[C@H](CC(C)C)NC(=O)[C@H](Cc1ccccc1)NC(=O)[C@H](CCC(=O)O)NC(=O)[C@H](C)NC(=O)[C@H](CC(C)C)NC(=O)[C@H](CCCNC(=N)N)NC(=O)[C@H](CCC(N)=O)NC(=O)[C@@H](NC(=O)[C@H](C)NC(=O)[C@@H]1CSSC[C@H](NC(=O)[C@@H](N)CCCCNC(=O)CC[C@H](NC(=O)CC[C@H](NC(=O)CCCCCCCCCCCCCCCCCCC(=O)O)C(=O)O)C(=O)O)C(=O)N[C@@H](CC(N)=O)C(=O)N[C@@H]([C@@H](C)O)C(=O)N[C@@H](C)C(=O)N[C@@H]([C@@H](C)O)C(=O)N1)[C@@H](C)O)C(=O)N1CCC[C@H]1C(=O)N[C@@H](CO)C(=O)N[C@@H](CO)C(=O)N[C@H](C(=O)N[C@@H](CC(N)=O)C(=O)N[C@H](C(=O)NCC(=O)N[C@@H](CO)C(=O)N[C@@H](CC(N)=O)C(=O)N[C@H](C(=O)N1CCC[C@H]1C(N)=O)[C@@H](C)O)C(C)C)[C@@H](C)O [Example 13] (H-K([γGlu-γGlu-C20 diacid])CNTATCATQRLAEFLRHSSPNFGAIPSSTNVGSNTP-NH2; disulfide 2-7; N-terminus assumed)
